Consider nine molecules from ChEMBL document CHEMBL3880421, “Indazole compounds and pharmaceutical compositions for inhibiting protein kinases, and methods for their use” (2003).

A short description of data set [1]: Terminal half life in B6 mouse at 25 mg/kg, ip by UV-HPLC analysis. The settings on record: in vivo, read-out: beta t1/2 (converted). Type of data set: ADME, organism-based.
A short description of data set [2]: Terminal half life in B6 mouse at 25 mg/kg, po by UV-HPLC analysis. The settings on record: in vivo; for half-life: B6, mouse, read-out: beta t1/2 (converted). The format is ADME, organism-based.
The test system of data set [3] is Rattus norvegicus. Description: Antivascular activity in rat model of retinopathy assessed as vessel regression in retina at 5 mg/ml, administered intravitreally on postnatal day 8 measured after 6 days by ADPase-staining based histochemical analysis. Type of data set: functional.
Data set [4] is described as follows: Terminal half life in B6 mouse at 25 mg/kg, po administered in 0.5% CMC by UV-HPLC analysis. The format is ADME, organism-based. The note with it: in vivo, read-out: beta t1/2 (converted).
Data set [5] in a line: AUClast in B6 mouse at 10 mg/kg, po by UV-HPLC analysis. The format is ADME, organism-based. On the set-up: dose 10 mg/kg, route oral, time 0 - last. The note with it: in vivo.
Data set [6] can be described thus: Cmax in B6 mouse at 10 mg/kg, po by UV-HPLC analysis. The format is ADME, organism-based. On the set-up: dose 10 mg/kg, route oral. The note with it: in vivo.
Data set [7] is described as follows: Cmin in B6 mouse at 8 mg/kg, po measured after 7 hrs by UV-HPLC analysis. The format is ADME, organism-based. The settings on record: in vivo, read-out: Cmin.
Data set [8] can be described thus: Cmin in B6 mouse at 40 mg/kg, po measured after 7 hrs by UV-HPLC analysis. The format is ADME, organism-based. The note with it: in vivo, read-out: Cmin.
The nature of data set [9]: Terminal half life in B6 mouse at 10 mg/kg, po by UV-HPLC analysis. The format is ADME, organism-based. The settings on record: in vivo, read-out: beta t1/2 (converted).
Data set [10] can be described thus: Terminal half life in B6 mouse at 8 mg/kg, po by UV-HPLC analysis. The note with it: in vivo, read-out: beta t1/2 (converted). The format is ADME, organism-based.
The nature of data set [11]: Terminal half life in B6 mouse at 40 mg/kg, po by UV-HPLC analysis. The format is ADME, organism-based. The settings on record: in vivo, read-out: beta t1/2 (converted).
Data set [12] can be described thus: AUClast in B6 mouse at 200 mg/kg, po by UV-HPLC analysis. The format is ADME, organism-based. On the set-up: dose 200 mg/kg, time 0 - last, route oral. The note with it: in vivo.
A short description of data set [13]: Cmin in B6 mouse at 200 mg/kg, po measured after 7 hrs by UV-HPLC analysis. The format is ADME, organism-based. The settings on record: in vivo, read-out: Cmin.
Data set [14] is described as follows: Terminal half life in B6 mouse at 200 mg/kg, po by UV-HPLC analysis. The format is ADME, organism-based. The settings on record: in vivo, read-out: beta t1/2 (converted).
Data set [15] in a line: AUClast in B6 mouse at 50 mg/kg, po by UV-HPLC analysis. Type of data set: ADME, organism-based. On the set-up: dose 50 mg/kg, route oral, time 0 - last. The settings on record: in vivo.
The nature of data set [16]: AUClast in B6 mouse at 25 mg/kg, po by UV-HPLC analysis. Type of data set: ADME, organism-based. On the set-up: dose 25 mg/kg, time 0 - last, route oral. The note with it: in vivo.
A short description of data set [17]: (§1) Cmax in B6 mouse at 25 mg/kg, po by UV-HPLC analysis. Type of data set: ADME, organism-based. On the set-up: dose 25 mg/kg, route oral. The note with it: B6, mouse, in vivo.
A short description of data set [18]: Metabolic stability in human liver microsomes assessed as compound remaining at 5 uM measured after 2 hrs in presence of NADPH-regenerating system by LC-UV/MS analysis. Type of data set: ADME. The settings on record: read-out: Stability. (Liver microsomes are vesicles of endoplasmic reticulum, rich in cytochrome P450 enzymes.)
Data set [19] in a line: Terminal half life in B6 mouse at 50 mg/kg, po by UV-HPLC analysis. Type of data set: ADME, organism-based. The note with it: B6, mouse, in vivo, read-out: beta t1/2 (converted).
In data set [20] the target is T1, Serine/threonine-protein kinase Chk1 (Homo sapiens) (UniProt O14757).
T1 sequence (whole entry): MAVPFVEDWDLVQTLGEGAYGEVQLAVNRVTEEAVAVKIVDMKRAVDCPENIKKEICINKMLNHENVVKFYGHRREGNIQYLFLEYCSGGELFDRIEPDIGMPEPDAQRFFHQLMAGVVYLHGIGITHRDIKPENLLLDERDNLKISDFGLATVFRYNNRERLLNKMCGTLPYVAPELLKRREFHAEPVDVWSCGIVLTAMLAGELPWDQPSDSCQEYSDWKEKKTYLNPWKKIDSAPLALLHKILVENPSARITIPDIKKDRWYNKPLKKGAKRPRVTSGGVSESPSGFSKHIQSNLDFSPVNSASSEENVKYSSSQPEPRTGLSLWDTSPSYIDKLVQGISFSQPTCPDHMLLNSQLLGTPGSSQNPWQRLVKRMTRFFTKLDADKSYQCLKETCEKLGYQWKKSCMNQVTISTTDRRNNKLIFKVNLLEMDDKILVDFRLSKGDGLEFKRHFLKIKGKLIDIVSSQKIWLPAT
Put plainly: Inhibition of full length human C-terminal 6His-tagged CHK1 expressed in baculovirus/insect expression system assessed as reduction in NADH oxidation at 50 uM using Syntide2 as substrate by pyruvate kinase/lactate dehydrogenase coupled assay.

Data set [21] is described as follows: Cmax in B6 mouse at 50 mg/kg, po by UV-HPLC analysis. The note with it: in vivo. The format is ADME, organism-based. On the set-up: dose 50 mg/kg, route oral.
Data set [22] relates to Mus musculus. The description is as §1. Type of data set: ADME, organism-based. On the set-up: dose 25 mg/kg, route oral. The note with it: mouse, in vivo, BLD = below limit of detection.

As to `CCONC(=O)c1ccccc1Sc1ccc2c(/C=C/c3ccccn3)n[nH]c2c1`, the half-life in [1] was 4.1 h; in data set [2] it was 2 h; in data set [4], 2 h. Further, in data set [3], the Activity entry is “>=25 - 75%”.
Turning to `CCn1nc(C)cc1C(=O)Nc1cccc(C(=O)c2ccc3c(/C=C/c4ccccn4)n[nH]c3c2)c1.Cl`, the AUC(0-t) in [5] turned out to be 0.061 µg·h/mL. This molecule also yielded a Cmax in data set [6] of 12 ng/mL. For the same molecule, the concentration at 7 h in data set [7] stood at 122 ng/mL; in data set [8] it was 1880 ng/mL. The half-life in data set [9] is 3.1 h; in [2], 1.6 h; in data set [10], 1.5 h; in data set [11], 2.4 h.
In the case of `Cc1cc(C(=O)Nc2cccc(C(=O)c3ccc4c(/C=C/c5ccccn5)n[nH]c4c3)c2)n(C)n1.Cl`, the AUC(0-t) in data set [12] worked out at 156 µg·h/mL. For the same molecule, in data set [13], the concentration at 7 h is 12100 ng/mL. Also, the half-life in [14] was 9.4 h.
`CCn1nc(C)cc1C(=O)Nc1cc(Nc2ccc3c(/C=C/c4ccccn4)n[nH]c3c2)c(F)cc1C.Cl` returned an AUC(0-t) in data set [15] of 276 µg·h/mL.
The molecule `Cc1cc(C(=O)Nc2cc(Nc3ccc4c(/C=C/c5ccccn5)n[nH]c4c3)ccc2F)n(C)n1.Cl` gave an AUC(0-t) in data set [16] of 327 µg·h/mL. In [17], this molecule had a Cmax of 50000 ng/mL. For the same molecule, the figures for the concentration at 7 h in data set [7], in data set [8] and in data set [13] were 1900 ng/mL, 4140 ng/mL and 12700 ng/mL, respectively.
Turning to `O=C(Nc1cccc(C(=O)c2ccc3c(/C=C/c4ccccn4)n[nH]c3c2)c1)c1ccncc1`, the remaining at 2 h, 5 µM in data set [18] stood at 50%. Besides, the results for the half-life in [19] and in [1] were 1.1 h and 4.7 h, respectively.
Turning to `O=C(c1cccc(NC(=O)C2C[C@H]2c2ccccc2)c1)c1ccc2c(/C=C/c3ccccn3)n[nH]c2c1` (mixture of isomers), the inhibition in [20] turned out to be 48%. Besides, the results for the half-life in [19] and in data set [1] were 0.5 h and 3.1 h, respectively.
`O=C(Nc1cccc(Oc2ccc3c(/C=C/c4ccccc4)n[nH]c3c2)c1)c1ccccc1` came in with a Cmax in data set [21] of 198 ng/mL.
In the case of `O=C(NCc1cccc(F)c1)c1ccccc1Sc1ccc2c(/C=C/c3ccccn3)n[nH]c2c1`, the Cmax entry in [22] was “Bld”. In addition, the “beta t1/2” value in data set [2] (mouse, BLD = below limit of detection) is “Bld”.

Usually AUC(0-t) stands for the area under the concentration-time curve up to a stated or last time point. A higher AUC(0-t) goes with high exposure. Usually Cmax stands for the highest concentration seen after dosing. For orientation: inhibition means the relative decrease from the control value, in per cent.
